Laboratory results published in patent US10040791B2, “Isoxazole derivative as mutant isocitrate dehydrogenase 1 inhibitor” (Daiichi Sankyo Company, Limited, priority 2014, dated 2018).
pIC50: −log10 of the molar value. Like-named read-outs stand apart in the source and are kept apart here.

Assays:
[1] = system: HT1080 xenografted mice (IDH1R132C); assay: 2-HG production inhibitory activity using HT1080 xenografted mice; assay type: in vivo, mouse; details: Mus musculus, HT-1080, po, 6 h, read-out: Test Example 5 Ratio (%)
Experimental: HT1080 xenografted mice having successfully engrafted tumors were given by oral gavage each compound at 75 mg/kg a total of three times twice a day. The compound was suspended in a vehicle solution at 7.5 mg/mL using a homogenizer. Then, the suspension was stored at −20° C., thawed immediately before the administration, and given to mice. A negative control group for the test was given a vehicle by oral gavage. The body weights of the mice were measured using an automatic balance for small animals. The dosing solution was administered at a dose of 10 mL/kg body weight.
6 hours after the final administration, each mouse was euthanized with carbon dioxide. A portion of a tumor was collected, and its weight was measured using an electronic balance. Then, the tumor was frozen on dry ice. To the frozen tumor, methanol was added in an amount of 14 times the tumor weight. The resulting tumor was homogenized with Beads shocker (Yasui Kikai Corp.) and then incubated for 15 minutes in a freezer at −20° C. After centrifugation at 15000 rpm at 4° C. for 15 minutes using a high-speed refrigerated microcentrifuge, 250 μL of methanol and 400 μL of ultrapure water were added to 150 μL of the obtained supernatant. The prepared samples were subjected to 2-HG measurement.

[2] = system: HT-1080 cells expressing IDH1R132C; assay: 2-HG production inhibitory activity using HT1080 cell; assay type: cell-based, human; details: Homo sapiens; for pIC50: HT-1080, 2-HG production, HT1080 cells, read-out: Test Example 3 IC50
Experimental: Then, 100 μL of growth medium B was added to each well, further 25 μL of a solution of each compound diluted to a predetermined concentration with growth medium B was added to each well, and the cells were incubated at 37° C. for 2 days under 5% CO2. […] Then, 150 μL of ultrapure water was further added to each well, and the mixture was stirred by pipetting and stored at −20° C.
The preserved solutions were thawed at room temperature.

IDH1R132C = IDH1R132C (Homo sapiens (Human), UniProt O75874, R132C); assay: Inhibitory activity against IDH1R132C enzyme (NADPH detection, WST-8); assay type: biochemical; details: 10 nM, residual NADPH detected with WST-8, read-out: Test Example 1 IDH1 R132C IC50
[3] = 2-HG production, HT1080 xenografted mice

Chain of IDH1R132C (O75874 whole entry R132C): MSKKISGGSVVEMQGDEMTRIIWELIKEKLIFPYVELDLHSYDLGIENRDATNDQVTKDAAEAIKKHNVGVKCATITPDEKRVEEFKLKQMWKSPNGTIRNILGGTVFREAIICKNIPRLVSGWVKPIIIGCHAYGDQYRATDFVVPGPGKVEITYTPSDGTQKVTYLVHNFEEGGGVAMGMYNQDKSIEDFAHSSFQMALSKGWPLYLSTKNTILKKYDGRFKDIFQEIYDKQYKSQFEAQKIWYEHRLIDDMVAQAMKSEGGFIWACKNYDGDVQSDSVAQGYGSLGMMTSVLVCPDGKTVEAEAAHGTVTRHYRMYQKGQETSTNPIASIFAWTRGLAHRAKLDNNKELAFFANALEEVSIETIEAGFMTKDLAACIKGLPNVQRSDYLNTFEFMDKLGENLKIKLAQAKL

SMILES	response vs control in vivo at 75 mg/kg [1, 3]	pIC50 [2]	pIC50 (IDH1R132C)	response vs control in vivo at 75 mg/kg [1]	IC50 ([2]; HT-1080, read-out: Test Example 3 IC50 (nM))
C=CC(=O)N1CCN(c2onc(-c3c(Cl)cc(Cl)cc3Cl)c2C(=O)n2ccc3c(/C=C/C(=O)O)cccc32)C(C)C1 (stereo in doubt) [Example 146, (2E)-3-[1-({5-[(2R)-4-Acryloyl-2-methylpiperazin-1-yl]-3-(2,4,6-trichlorophenyl)-1,2-oxazol-4-yl}carbonyl)-1H-indol-4-yl]prop-2-enoic acid]	38%	6.98	6.84	–	–
CC1(c2onc(-c3c(Cl)cc(Cl)cc3Cl)c2C(=O)n2ccc3c(/C=C/C(=O)O)cccc32)COC1 [Example 1, (2E)-3-(1-{[5-(3-Methyloxetan-3-yl)-3-(2,4,6-trichlorophenyl)-1,2-oxazol-4-yl]carbonyl}-1H-indol-4-yl)prop-2-enoic acid]	21%	7.48	7.25	–	–
Cc1cn(C(=O)c2c(-c3c(Cl)cc(Cl)cc3Cl)noc2C2(C)COC2)c2cccc(/C=C/C(=O)O)c12 [Example 2, (2E)-3-(3-Methyl-1-{[5-(3-methyloxetan-3-yl)-3-(2,4,6-trichlorophenyl)-1,2-oxazol-4-yl]carbonyl}-1H-indol-4-yl)prop-2-enoic acid]	18%	7.74	7.33	–	–
COC1(c2onc(-c3c(Cl)cc(Cl)cc3Cl)c2C(=O)n2ccc3c(/C=C/C(=O)O)cccc32)COC1 [Example 3, (2E)-3-(1-{[5-(3-Methoxyoxetan-3-yl)-3-(2,4,6-trichlorophenyl)-1,2-oxazol-4-yl]carbonyl}-1H-indol-4-yl)prop-2-enoic acid]	42%	7.22	7.19	–	–
COC1(c2onc(-c3c(Cl)cc(Cl)cc3Cl)c2C(=O)n2cc(C)c3c(/C=C/C(=O)O)cccc32)COC1 [Example 4, (2E)-3-(1-{[5-(3-Methoxyoxetan-3-yl)-3-(2,4,6-trichlorophenyl)-1,2-oxazol-4-yl]carbonyl}-3-methyl-1H-indol-4-yl)prop-2-enoic acid]	15%	7.57	7.25	–	–
CC1(c2onc(-c3c(Cl)cc(Cl)cc3Cl)c2C(=O)n2cc3c4c(cccc42)/C(=C/C(=O)O)CC3)COC1 [Example 8, (2E)-[1-{[5-(3-Methyloxetan-3-yl)-3-(2,4,6-trichlorophenyl)-1,2-oxazol-4-yl]carbonyl}-3,4-dihydrobenzo[cd]indol-5(1H)-ylidene]ethanoic acid]	67%	7.66	7.26	–	–
Cc1cn(C(=O)c2c(-c3c(Cl)cc(Cl)cc3Cl)noc2C2(C)CCC2)c2cccc(/C=C/C(=O)O)c12 [Example 10, (2E)-3-(3-Methyl-1-{[5-(1-methylcyclobutyl)-3-(2,4,6-trichlorophenyl)-1,2-oxazol-4-yl]carbonyl}-1H-indol-4-yl)prop-2-enoic acid]	27%	7.30	6.75	–	–
COC1(c2onc(-c3c(Cl)cc(Cl)cc3Cl)c2C(=O)n2cc3c4c(cccc42)/C(=C/C(=O)O)CC3)CCC1 [Example 12, (2E)-[1-{[5-(1-Methoxycyclobutyl)-3-(2,4,6-trichlorophenyl)-1,2-oxazol-4-yl]carbonyl}-3,4-dihydrobenzo[cd]indol-5(1H)-ylidene]ethanoic acid]	7%	7.62	6.84	–	–
CC(C)(F)c1onc(-c2c(Cl)cc(Cl)cc2Cl)c1C(=O)n1cc2c3c(cccc31)/C(=C/C(=O)O)CC2 [Example 13, (2E)-[1-{[5-(2-Fluoropropan-2-yl)-3-(2,4,6-trichlorophenyl)-1,2-oxazol-4-yl]carbonyl}-3,4-dihydrobenzop[cd]indol-5(1H)-ylidene]ethanoic acid]	28%	7.29	6.83	–	–
CC(C)(F)c1onc(-c2c(F)cc(Cl)cc2Cl)c1C(=O)n1cc2c3c(cccc31)/C(=C/C(=O)O)CC2 [Example 16, (2E)-[1-{[3-(2,4-Dichloro-6-fluorophenyl)-5-(2-fluoropropan-2-yl)-1,2-oxazol-4-yl]carbonyl}-3,4-dihydrobenzo[cd]indol-5(1H)-ylidene]ethanoic acid]	32%	7.05	6.97	–	–
CC(C)(F)c1onc(-c2c(Cl)cc(Cl)cc2Cl)c1C(=O)n1ccc2c3c(ccc21)CCC(C(=O)O)C3 (stereo not drawn) [Example 18, 3-{[5-(2-Fluoropropan-2-yl)-3-(2,4,6-trichlorophenyl)-1,2-oxazol-4-yl]carbonyl}-6,7,8,9-tetrahydro-3H-Benzo[e]indole-8-carboxylic acid]	56%	6.87	6.79	–	–
CC1(c2onc(-c3c(Cl)cc(Cl)cc3Cl)c2C(=O)n2cc3c4c(cccc42)/C(=C/C(=O)O)CC3)CC(F)(F)C1 [Example 19]	79%	7.19	6.77	–	–
Cc1cn(C(=O)c2c(-c3c(Cl)cc(Cl)cc3Cl)noc2C(C)(C)F)c2cccc(/C=C/C(=O)O)c12 [Example 21, (2E)-3-(1-{[5-(2-Fluoropropan-2-yl)-3-(2,4,6-trichlorophenyl)-1,2-oxazol-4-yl]carbonyl}-3-methyl-1H-indol-4-yl)prop-2-enoic acid]	–	–	7.02	14%	56 nM
CC(C)(C)c1onc(-c2c(Cl)cc(Cl)cc2Cl)c1C(=O)n1ccc2c(/C=C/C(=O)O)cccc21 [Example 22, (2E)-3-(1-{[5-(tert-Butyl)-3-(2,4,6-trichlorophenyl)-1,2-oxazol-4-yl]carbonyl}-1H-indol-4-yl)prop-2-enoic acid]	13%	6.96	6.72	–	–
Cc1cn(C(=O)c2c(-c3c(Cl)cc(Cl)cc3Cl)noc2C(C)C)c2cccc(/C=C/C(=O)O)c12 [Example 29, (2E)-3-(1-{[5-(Propan-2-yl)-3-(2,4,6-trichlorophenyl)-1,2-oxazol-4-yl]carbonyl}-3-methyl-1H-indol-4-yl)prop-2-enoic acid]	39%	7.03	6.99	–	–
Cc1cn(C(=O)c2c(-c3c(Cl)cc(Cl)cc3Cl)noc2C(C)(C)C)c2cccc(/C=C/C(=O)O)c12 [Example 33, (2E)-3-(1-{[5-(tert-Butyl)-3-(2,4,6-trichlorophenyl)-1,2-oxazol-4-yl]carbonyl}-3-methyl-1H-indol-4-yl)prop-2-enoic acid]	15%	7.37	6.71	–	–
Cc1cn(C(=O)c2c(-c3ccc(Cl)cc3Cl)noc2C2(C)COC2)c2cccc(/C=C/C(=O)O)c12 [Example 78, (2E)-3-(1-{[3-(2,4-Dichlorophenyl)-5-(3-methyloxetan-3-yl)-1,2-oxazol-4-yl]carbonyl}-3-methyl-1H-indol-4-yl)prop-2-enoic acid]	50%	6.55	–	–	–
Cc1cn(C(=O)c2c(-c3c(Cl)cc(Cl)cc3Cl)noc2C2(C#N)CCC2)c2cccc(/C=C/C(=O)O)c12 [Example 93, (2E)-3-(1-{[5-(1-Cyanocyclobutyl)-3-(2,4,6-trichlorophenyl)-1,2-oxazol-4-yl]carbonyl}-3-methyl-1H-indol-4-yl)prop-2-enoic acid]	119%	7.38	–	–	–
Cn1cc(C(=O)c2c(-c3c(Cl)cc(Cl)cc3Cl)noc2C(C)(C)C)c2cccc(/C=C/C(=O)O)c21 [Example 164]	89%	6.48	–	–	–
